According to patent US20240166652A1, “MODULATORS OF THE INTEGRATED STRESS PATHWAY” (Calico Life Sciences LLC, priority 2017, published 2024):

Test system: ATF4 luciferase reporter in HEK293T cells
Assay: ATF4-Luc assay (ATF4 luciferase reporter, tunicamycin-treated HEK293T cells)
Type: cell-based, human
Conditions: Homo sapiens, HEK-293T; HEK293T cells carrying the ATF4 luciferase reporter, 1 μg/mL tunicamycin, 7 hours

SMILES | EC50
O=C(COc1ccc(F)c(Cl)c1)NC12CC(NC(=O)COc3ccc4c(c3)OC(F)(F)O4)(C1)C2 [Compound 591, 2-(3-chloro-4-fluorophenoxy)-N-(3-{2-[(2,2-difluoro-2H-1,3-benzodioxol-5-yl)oxy]acetamido}bicyclo[1.1.1]pentan-1-yl)acetamide] | < 10 nM
Cc1cccc(COCC(=O)NC23CC(NC(=O)COc4ccc(Cl)c(Cl)c4)(C2)C3)n1 [Compound 153, 2-(3,4-dichlorophenoxy)-N-(3-{2-[(6-methylpyridin-2-yl)methoxy]acetamido}bicyclo[1.1.1]pentan-1-yl)acetamide] | 50 to 250 nM
CN(CC(=O)O)C1CC2(NC(=O)COc3ccc(Cl)c(F)c3)CCC1(NC(=O)COc1ccc(Cl)c(F)c1)CC2 (centres unmarked) [Compound 700, [{1,4-bis[2-(4-chloro-3-fluorophenoxy)acetamido]bicyclo[2.2.2]octan-2-yl}(methyl)amino]acetic Acid] | 250 to 500 nM
CCc1nc(C)ccc1OCC(=O)NC12CC(NC(=O)COc3ccc(Cl)c(F)c3)(C1)C2 [Compound 239, 2-(4-chloro-3-fluorophenoxy)-N-(3-{2-[(2-ethyl-6-methylpyridin-3-yl)oxy]acetamido}bicyclo[1.1.1]pentan-1-yl)acetamide] | > 2000 nM
O=C(COc1ccc(Cl)c(F)c1)NC12CCC(NC(=O)COc3ccc(Cl)c(F)c3)(CC1)CC2 [Compound 100, N,N′-(bicyclo[2.2.2]octane-1,4-diyl)bis[2-(4-chloro-3-fluorophenoxy)acetamide]] | < 10 nM
O=C(COc1ccc(Cl)c(F)c1)NC12CC(NCc3ccccc3)(C1)C2 [Compound 551, N-[3-(benzylamino)bicyclo[1.1.1]pentan-1-yl]-2-(4-chloro-3-fluorophenoxy)acetamide] | 500 to 2000 nM
O=C(COc1ccc(Cl)c(F)c1)NC12CCC(NCc3nc4cc(F)ccc4[nH]3)(CC1)C[C@@H]2O [Compound 647, 2-(4-chloro-3-fluorophenoxy)-N-[(2S)-4-{[(5-fluoro-1H-benzimidazol-2-yl)methyl]amino}-2-hydroxybicyclo[2.2.2]octan-1-yl]acetamide] | 50 to 250 nM
O=C(COc1ccc(C(F)(F)F)nc1)NC12CCC(NC(=O)COc3ccc(C(F)(F)F)nc3)(CC1)C2 [Compound 530, N,N′-(bicyclo[2.2.1]heptane-1,4-diyl)bis(2-{[6-(trifluoromethyl)pyridin-3-yl]oxy}acetamide)] | 500 to 2000 nM
O=C(COc1ccc(Cl)cc1)NC12CCC(NC(=O)COc3ccc(C(F)(F)F)c(F)c3)(CC1)[C@@H](O)C2 [Compound 834, 2-(4-chlorophenoxy)-N-[(3S)-4-{2-[3-fluoro-4-(trifluoromethyl)phenoxy]acetamido}-3-hydroxybicyclo[2.2.2]octan-1-yl]acetamide] | < 10 nM
COc1cccc(CCC(=O)NC23CC(NC(=O)COc4ccc(Cl)c(F)c4)(C2)C3)c1 [Compound 461, N-{3-[2-(4-chloro-3-fluorophenoxy)acetamido]bicyclo[1.1.1]pentan-1-yl}-3-(3-methoxyphenyl)propanamide] | > 2000 nM
N#Cc1cccc(COCC(=O)NC23CC(NC(=O)COc4ccc(Cl)c(Cl)c4)(C2)C3)c1 [Compound 161, 2-[(3-cyanophenyl)methoxy]-N-{3-[2-(3,4-dichlorophenoxy)acetamido]bicyclo[1.1.1]pentan-1-yl}acetamide] | 50 to 250 nM
Cc1cccc(CCOCC(=O)NC23CC(NC(=O)COc4ccc(Cl)c(Cl)c4)(C2)C3)c1 [Compound 152, 2-(3,4-dichlorophenoxy)-N-(3-{2-[2-(3-methylphenyl)ethoxy]-acetamido}bicyclo[1.1.1]pentan-1-yl)acetamide] | 50 to 250 nM
Cc1ccc(COCC(=O)NC23CC(NC(=O)COc4ccc(Cl)c(Cl)c4)(C2)C3)cc1 [Compound 160, 2-(3,4-dichlorophenoxy)-N-(3-{2-[(4-methylphenyl)methoxy]-acetamido}bicyclo[1.1.1]pentan-1-yl)acetamide] | 50 to 250 nM
O=C(COc1ccc(Cl)c(F)c1)NC12CCC(NC(=O)COc3ccc(C(F)(F)F)nc3)(CC1)C(F)C2 (single isomer, unassigned) [Compound 372] | 50 to 250 nM
